Data as given in PubChem BioAssay (NCI).
Several values for one entry are separate records, joined by “and”; a condition that tells them apart may be missing. Equal entries are not always repeated.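 Interpolation was linear, between the two tested concentrations surrounding the appropriate level; five concentrations were tested over 48 hours in 96-well plates. Here, GI50 denotes the concentration required for 50% inhibition of growth. TGI denotes the concentration required for complete inhibition of growth.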

Key:
Assay in all cases: NCI-60 cell line screen, 48 h
[1] = tested on: SR leukemia
[2] = tested on: ACHN renal
[3] = tested on: K-562 leukemia
[4] = tested on: BT-549 breast
[5] = tested on: HL-60(TB) leukemia
[6] = tested on: COLO 205 colon
[7] = tested on: HOP-62 NSCLC
[8] = tested on: SK-MEL-2 melanoma
[9] = tested on: SNB-19 CNS
[10] = tested on: UACC-62 melanoma

Row | SMILES | GI50 [1] | TGI [1] | GI50 [2] | TGI [2] | GI50 [3] | TGI [3] | GI50 [4] | TGI [4] | GI50 [5] | TGI [5] | GI50 [6] | TGI [6] | GI50 [7] | TGI [7] | GI50 [8] | TGI [8] | GI50 [9] | TGI [9] | GI50 [10] | TGI [10]
1 | CNC(=O)c1cc2c(Oc3ccc(NC(=O)C4(C(=O)Nc5ccc(F)cc5)CC4)cc3)ccnc2cc1OC | 2050 nM | 5990 nM | 2310 nM | > 100000 nM | 370 nM | 3400 nM | 3010 nM | 9600 nM | 2630 nM | 6630 nM | 2230 nM | 9130 nM | 2670 nM | > 100000 nM | 2020 nM | 5920 nM | 8020 nM | > 100000 nM | 1540 nM | 15000 nM
2 | Cc1nc(Nc2n[nH]c3c2CN(C(=O)N[C@H](CN(C)C)c2ccccc2)C3(C)C)c2sccc2n1 | 4.32 nM and < 10 nM |  | 432 nM and 337 nM | > 75000 nM | 24.2 nM and 199 nM | > 100000 nM | 393 nM and 189 nM | 3630 nM and 3120 nM | 18.9 nM and 56.4 nM | 2030 nM and 3430 nM | 8.66 nM and < 10.9 nM | 241 nM and 279 nM | 72.4 nM and 129 nM | 5120 nM and 7060 nM | 21.1 nM and 14.9 nM | 1010 nM and 2800 nM | 57.5 nM and 54.6 nM | > 6540 nM and 3750 nM | 4.87 nM and < 10 nM | 154 nM
3 | O=S1(=O)NCCCN1CCNc1nccc(-c2c(-c3cccc(O)c3)nc3sccn23)n1 | 5550 nM | 59300 nM | 11800 nM | > 100000 nM | 21600 nM | > 100000 nM | 24300 nM | > 100000 nM | 23000 nM | 60000 nM | 581 nM | 27400 nM | 42300 nM | > 100000 nM | 2570 nM | 9660 nM | > 92500 nM | > 100000 nM | 87.3 nM | 5660 nM
4 | CCN(CC)CCNC(=O)c1c(C)[nH]c(/C=C2\C(=O)Nc3ccc(F)cc32)c1C | 1970 nM and 4560 nM and 1270 nM | 5110 nM and 14200 nM and 3740 nM | 1770 nM and 1530 nM and 1320 nM | > 10000 nM and 6480 nM and 9500 nM | 2290 nM and 3220 nM and 1530 nM | > 10000 nM and 9750 nM and 5570 nM | 4840 nM and 3320 nM and 3670 nM | > 10000 nM and 6120 nM and 12600 nM | 353 nM and 2420 nM and 847 nM | 4340 nM and 6340 nM and 4130 nM | 3570 nM and 2980 nM and 3390 nM | > 10000 nM and 5840 nM and 8800 nM | 5270 nM and 2420 nM and 2640 nM | > 10000 nM and 5940 nM and 15300 nM | 1380 nM and 2100 nM and 4560 nM | 9460 nM and 4820 nM and 13200 nM | > 10000 nM and 5360 nM and 11400 nM | > 10000 nM and 16300 nM and 25600 nM | > 10000 nM and 3260 nM and 4120 nM | > 10000 nM and 6980 nM and 10900 nM
5 | Cn1c(/C(C#N)=C/c2ccc3ccccc3c2)cc2ccccc21 | 114 nM | > 100000 nM | 125 nM | > 100000 nM | 45.5 nM | > 100000 nM | 474 nM | > 100000 nM | 210 nM | 699 nM | 309 nM | > 26100 nM | 357 nM | > 100000 nM | 6280 nM | > 100000 nM | 256 nM | > 100000 nM | 42.5 nM | > 100000 nM
6 | CCC1=C[C@@H]2CN(C1)Cc1c([nH]c3ccccc13)[C@@](C(=O)OC)(c1cc3c(cc1OC)N(C)[C@H]1[C@@](O)(C(=O)OC)[C@H](OC(C)=O)[C@]4(CC)[C@@H]5C[C@@H]5CN5CC[C@]31[C@@H]54)C2 | < 5 nM |  | 19.1 nM and 168 nM | 7790 nM and 26200 nM | < 5 nM |  |  | 3460 nM and 17500 nM | < 5 nM |  | < 5 nM | 5.46 nM and 28.2 nM | < 5 nM | 6940 nM and 16700 nM | < 5 nM | 2070 nM |  | 19200 nM and 35100 nM | < 5 nM | 6390 nM and 16900 nM
7 | C[C@H](Cn1ncnn1)Nc1ncc2cc(Oc3ccc(F)cc3F)c(=O)n(C)c2n1 | > 25000 nM | > 25000 nM | > 25000 nM | > 25000 nM | > 25000 nM | > 25000 nM | > 25000 nM | > 25000 nM | > 25000 nM | > 25000 nM | > 25000 nM | > 25000 nM | > 25000 nM | > 25000 nM | > 25000 nM | > 25000 nM | > 25000 nM | > 25000 nM | > 25000 nM | > 25000 nM
8 | O=S(=O)(CCOCc1ccc(-c2ccc3ncnc(Nc4ccc(OCc5cccc(F)c5)c(Cl)c4)c3c2)o1)c1ccccc1 | > 25000 nM | > 25000 nM | 1860 nM | > 25000 nM | > 25000 nM | > 25000 nM | > 25000 nM | > 25000 nM | > 25000 nM | > 25000 nM | > 25000 nM | > 25000 nM | > 25000 nM | > 25000 nM | > 25000 nM | > 25000 nM | > 25000 nM | > 25000 nM | > 25000 nM | > 25000 nM
9 | CCC(=C(c1ccc(OCCCN(C)C)cc1)c1ccc(OCCCN(C)C)cc1)c1ccc(Cl)cc1 | 288 nM | 716 nM | 469 nM | 1360 nM | 324 nM | 780 nM | 2540 nM | 4940 nM | 372 nM | 941 nM | 399 nM | 1040 nM | 2310 nM | 5100 nM | 2630 nM | 5370 nM | 921 nM | 3050 nM | 345 nM | 782 nM
10 | COCCOCCOCc1n(Cc2ccc3ccccc3n2)c2ccccc2[n+]1Cc1ccc2ccccc2c1 | 273 nM | 1070 nM | 2040 nM | 5680 nM | 291 nM | 1700 nM | 277 nM | 977 nM | 187 nM | 476 nM | 281 nM | 876 nM | 468 nM | 2520 nM | 376 nM | 1560 nM | 441 nM | 1620 nM | 364 nM | 1360 nM
11 | O=C(c1ccc2ccccc2c1)c1c(C(F)(F)F)n([O-])c2ccc(Cl)cc2[n+]1=O | 438 nM | 1340 nM | 1630 nM | 2980 nM | 1220 nM | 2650 nM | 1600 nM | 2990 nM | 1590 nM | 3290 nM | 1340 nM | 2730 nM | 1860 nM | 3460 nM | 1740 nM | 3200 nM | 1690 nM | 3070 nM | 1710 nM | 3080 nM
